From patent US8080529B2, “Macrolides with anti-inflammatory activity” (Glaxo Group Limited, priority 2005, dated 2011)
Read-outs that look alike come from different tables or passages of the source.

Tests used:
[1] = test system: Hep G2; test: Cytotoxicity assay (MTT), Hep G2 cell line; format: cell-based; settings: 24 h
How it was run: (§1)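 Viability was read as MTT-formazan absorbance at 490 nm after 0.5-2 h with reagent. This followed 24 h compound exposure (50 μM, 12.5 μM) at 37° C in RPM medium. Result expressed as OD490 treated over untreated cells ×100.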

[2] = test system: TNF-α; test: Lipopolysaccharide induced TNF-α production in Balb/cJ mice; format: in vivo; settings: 10 mg/kg intraperitoneally, 30 min before LPS, 90 min after LPS
[3] = test system: human peripheral blood mononuclear cells (PBMC); test: Effects on human T-cell proliferation in vitro (3H-thymidine incorporation); format: cell-based; settings: for inhibition at 10 µM / inhibition at 50 µM: Homo sapiens, PBMC, read-out: Percentage of inhibition of proliferation of stimulated PBMC
How it was run: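 Proliferation of human peripheral blood mononuclear cells (PBMC) was assessed in the presence of test compounds. During the final 18 h of culture each well received 1 μCi of ^3H-thymidine. Cells were then collected onto a 96-well filter with a multiple cell harvester, and ^3H-thymidine incorporation was counted on a TopCount NXT to give percentage inhibition of proliferation.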

[4] = test system: IL-6; test: Inhibition of IL-6 production by stimulated human peripheral blood leukocytes in vitro; format: cell-based; settings: for inhibition at 10 µM / inhibition at 50 µM: Homo sapiens, Leukocyte, read-out: Percentage of inhibition of IL-6 production
How it was run: (§2)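 Sandwich ELISA of supernatant cytokines; % inhibition = (1 − sample/stimulated untreated control)×100. Dextran-isolated human PBL were pretreated 2 h with 10 or 50 μM compound, then challenged overnight with LPS (2 μg/mL), PMA (1 μg/mL) or zymosan (120 μg/mL).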

[5] = test system: TNF-α; test: Inhibition of TNF-α production by stimulated human peripheral blood leukocytes in vitro; format: cell-based; settings: for inhibition at 10 µM / inhibition at 50 µM: Homo sapiens, Leukocyte, read-out: Percentage of inhibition of TNF-α production
How it was run: as §2

[6] = test system: A549; test: Cytotoxicity assay (MTT), A549 cell line; format: cell-based; settings: 24 h
How it was run: as §1

[7] = test system: IL-8; test: Inhibition of IL-8 production by stimulated human peripheral blood leukocytes in vitro; format: cell-based; settings: for inhibition at 10 µM / inhibition at 50 µM: Homo sapiens, Leukocyte, read-out: Percentage of inhibition of IL-8 production
How it was run: as §2

[8] = test system: IL-1α; test: Inhibition of IL-1 production by stimulated human peripheral blood leukocytes in vitro; format: cell-based; settings: for inhibition at 10 µM / inhibition at 50 µM: Homo sapiens, Leukocyte, read-out: Percentage of inhibition of IL-1α production

For `CC[C@H]1OC(=O)[C@H](C)[C@@H](O[C@H]2C[C@@](C)(OC)[C@@H](OC(=O)CCN(C)C)[C@H](C)O2)[C@H](C)[C@@H](O[C@@H]2O[C@H](C)C[C@H](N(C)C)[C@H]2O)[C@](C)(OC)C[C@@H](C)C(=O)N[C@H](C)[C@@H](O)[C@]1(C)O` [Example 12, 4″-O-(3-dimethylamino-propionyl)-6-O-methyl-9a-aza-9a-homoerythromycin A], the “Percentage of inhibition of cell growth” value ([1]; 12.5 μM) was 0%, the “Percentage of inhibition of cell growth” value ([1]; 50 μM) was 0% and the inhibition in vivo at 10 mg/kg ([2]; Mus musculus, ip, 1.5 h, read-out: % inhibition of TNF-α production (plasma)) was 69%. It also gave an inhibition at 10 µM ([3]; PHA, 10 μM) of 33%, an inhibition at 50 µM ([3]; PHA, 50 μM) of 99% and an inhibition at 10 µM ([3]; PMA + iono., 10 μM) of 29%. The inhibition at 50 µM ([3]; PMA + iono., 50 μM) was 96%, the inhibition at 10 µM ([4]; 10 μM, LPS-stimulated PBL) was 16% and the inhibition at 10 µM ([4]; 10 μM, PMA-stimulated PBL) was 32%. The inhibition at 10 µM ([4]; 10 μM, zymosan-stimulated PBL) was 67%, the inhibition at 50 µM ([4]; 50 μM, LPS-stimulated PBL) was 81% and the inhibition at 50 µM ([4]; 50 μM, PMA-stimulated PBL) was 67%. The inhibition at 50 µM ([4]; 50 μM, zymosan-stimulated PBL) was 91%, the inhibition at 10 µM ([5]; 10 μM, LPS-stimulated PBL) was 23% and the inhibition at 10 µM ([5]; 10 μM, PMA-stimulated PBL) was 49%. It also gave an inhibition at 10 µM ([5]; 10 μM, zymosan-stimulated PBL) of 77%, an inhibition at 50 µM ([5]; 50 μM, LPS-stimulated PBL) of 92% and an inhibition at 50 µM ([5]; 50 μM, PMA-stimulated PBL) of 97%. The inhibition at 50 µM ([5]; 50 μM, zymosan-stimulated PBL) was 97%, the “Percentage of inhibition of cell growth” value ([6]; 12.5 μM) was 8% and the “Percentage of inhibition of cell growth” value ([6]; 50 μM) was 4%. For the same molecule, the inhibition at 10 µM ([7]; 10 μM, LPS-stimulated PBL) was 7%, the inhibition at 10 µM ([7]; 10 μM, PMA-stimulated PBL) was 0% and the inhibition at 10 µM ([7]; 10 μM, zymosan-stimulated PBL) was 2%. The inhibition at 50 µM ([7]; 50 μM, LPS-stimulated PBL) was 72%, the inhibition at 50 µM ([7]; 50 μM, PMA-stimulated PBL) was 3% and the inhibition at 50 µM ([7]; 50 μM, zymosan-stimulated PBL) was 9%. For the same molecule, the inhibition at 10 µM ([8]; 10 μM, LPS-stimulated PBL) was 43%, the inhibition at 10 µM ([8]; 10 μM, PMA-stimulated PBL) was 45% and the inhibition at 10 µM ([8]; 10 μM, zymosan-stimulated PBL) was 88%. The inhibition at 50 µM ([8]; 50 μM, LPS-stimulated PBL) was 95%, the inhibition at 50 µM ([8]; 50 μM, PMA-stimulated PBL) was 90% and the inhibition at 50 µM ([8]; 50 μM, zymosan-stimulated PBL) was 100%.
For `CCC1OC(=O)C(C)C(OC2CC(C)(OC)C(OC(=O)CCN(CC)CC)C(C)O2)C(C)C(OC2OC(C)CC(N(C)C)C2O)C(C)(OC)CC(C)C(=O)NC(C)C(O)C1(C)O` (centres unmarked) [Example 8, 4″-O-(3-Diethylamino-propionyl)-6-O-methyl-9a-aza-9a-homoerythromycin A], the “% inhibition of TNF-α production (plasma)” value [2] was 93%, the “Percentage of inhibition of proliferation of stimulated PBMC” value ([3]; PHA, 10 μM) was 96% and the “Percentage of inhibition of proliferation of stimulated PBMC” value ([3]; PHA, 50 μM) was 100%. The “Percentage of inhibition of proliferation of stimulated PBMC” value ([3]; PMA + iono., 10 μM) was 37%, the “Percentage of inhibition of proliferation of stimulated PBMC” value ([3]; PMA + iono., 50 μM) was 99% and the “Percentage of inhibition of IL-6 production” value ([4]; 10 μM, LPS-stimulated PBL) was 16%. The “Percentage of inhibition of IL-6 production” value ([4]; 10 μM, PMA-stimulated PBL) was 24%, the “Percentage of inhibition of IL-6 production” value ([4]; 10 μM, zymosan-stimulated PBL) was 57% and the “Percentage of inhibition of IL-6 production” value ([4]; 50 μM, LPS-stimulated PBL) was 63%. For the same molecule, the “Percentage of inhibition of IL-6 production” value ([4]; 50 μM, PMA-stimulated PBL) was 100%, the “Percentage of inhibition of IL-6 production” value ([4]; 50 μM, zymosan-stimulated PBL) was 80% and the “Percentage of inhibition of TNF-α production” value ([5]; 10 μM, LPS-stimulated PBL) was 51%. For the same molecule, the “Percentage of inhibition of TNF-α production” value ([5]; 10 μM, PMA-stimulated PBL) was 46%, the “Percentage of inhibition of TNF-α production” value ([5]; 10 μM, zymosan-stimulated PBL) was 87% and the “Percentage of inhibition of TNF-α production” value ([5]; 50 μM, LPS-stimulated PBL) was 85%. The “Percentage of inhibition of TNF-α production” value ([5]; 50 μM, PMA-stimulated PBL) was 87%, the “Percentage of inhibition of TNF-α production” value ([5]; 50 μM, zymosan-stimulated PBL) was 92% and the “Percentage of inhibition of IL-8 production” value ([7]; 10 μM, LPS-stimulated PBL) was 38%. The “Percentage of inhibition of IL-8 production” value ([7]; 10 μM, PMA-stimulated PBL) was 40%, the “Percentage of inhibition of IL-8 production” value ([7]; 10 μM, zymosan-stimulated PBL) was 31% and the “Percentage of inhibition of IL-8 production” value ([7]; 50 μM, LPS-stimulated PBL) was 79%. The “Percentage of inhibition of IL-8 production” value ([7]; 50 μM, PMA-stimulated PBL) was 89%, the “Percentage of inhibition of IL-8 production” value ([7]; 50 μM, zymosan-stimulated PBL) was 88% and the “Percentage of inhibition of IL-1α production” value ([8]; 10 μM, LPS-stimulated PBL) was 66%. The “Percentage of inhibition of IL-1α production” value ([8]; 10 μM, PMA-stimulated PBL) was 71%, the “Percentage of inhibition of IL-1α production” value ([8]; 10 μM, zymosan-stimulated PBL) was 86% and the “Percentage of inhibition of IL-1α production” value ([8]; 50 μM, LPS-stimulated PBL) was 83%. The “Percentage of inhibition of IL-1α production” value ([8]; 50 μM, PMA-stimulated PBL) was 86% and the “Percentage of inhibition of IL-1α production” value ([8]; 50 μM, zymosan-stimulated PBL) was 94%.
